Experimental data as given in patent US10287276B2, “Heteroaryl-1,2,4-triazole and heteroaryl-tetrazole compounds for controlling ectoparasites” (Elanco Tiergesundheit AG, priority 2016, dated 2019).

Columns and labels:
[1] = tested on: Ctenocephalides Felis (Cat Flea); assay: Activity in vitro against Ctenocephalides felis (cat flea), Assay A; conditions: adult fleas fed on treated blood for 24 h; for pest or weed control at 100 ppm: Ctenocephalides felis, dead fleas counted, read-out: efficacy (EC80)
Method: Activity In Vitro Against Ctenocephalides Felis (Cat Flea)—Assay A
A mixed adult population of fleas is placed in a suitably formatted 96-well plate allowing fleas to access and feed on treated blood via an artificial feeding system. Fleas are fed on treated blood for 24 h, after which the compound effect is recorded. Insecticidal activity is determined on the basis of the number of dead fleas recovered from the feeding system.

[2] = tested on: Lucilla Cuprina (Australian sheep blowfly); assay: Activity in vitro against Lucilla cuprina (Australian sheep blowfly), Assay A; conditions: Lucilia cuprina, 96 h; at 32 ppm; eggs on agar-based medium, 4 days at 28° C. and 60% relative humidity; read-out: efficacy (EC80)
Method: Activity in vitro against Lucilla Cuprina (Australian sheep blowfly)—Assay A
Freshly laid blowfly eggs are used to seed a suitably formatted microplate containing the test substances to be evaluated for antiparasitic activity. Each compound is tested by serial dilution in order to determine its minimum efficacy dose. The test compounds are embedded in an agar-based nutritive medium allowing the full development of the eggs into 3rd instar larvae. The incubation lasts for 4 days at 28° C. and 60% relative humidity. Egg-hatching and ensuing larval development are also recorded to identify a possible growth-regulating activity.

[3] = tested on: Engorged Female Rhipicephalus microplus (Cattle Tick); assay: Activity in vitro against engorged female Rhipicephalus microplus (cattle tick), contact test; conditions: 672 h, organophosphorous-resistant Ultimo strain, evaluation 28 days later on mortality, oviposition and hatched larvae, read-out: efficacy (EC80)
Method: Activity In Vitro Against Engorged Female Rhipicephalus microplus (Cattle Tick)
A contact test is performed by pre-coating 6-well microplates with serial dilution of the compound to be evaluated for anti-parasitic activity. 10 engorged female ticks of the organophosphorous-resistant Ultimo strain are distributed to each well in triplicates. Plates are then incubated at 28° C. and 80% relative humidity. Evaluation takes place 28 days later based on mortality, oviposition and hatched larvae. […] Activity In Vivo Against Rhipicephalus sanguineus Nymphs on Mongolian Gerbils (Meriones unguiculatus) (Spray Application)

[4] = tested on: Rhipicephalus sanguineus Nymphs; assay: Activity in vivo against Rhipicephalus sanguineus nymphs on Mongolian gerbils; conditions: topical, 0 h, pour on application day 0, tick number reduction vs placebo, Abbott's formula, read-out: efficacy (EC90)
Method: On day 0, gerbils are treated with the test compound at a given dose by pour on application. On day +1 (+2), the animals are infested with nymphs of R. sanguineus. Ticks are left on the animals until full repletion. Seven days after infestation nymphs dropped off fully engorged are collected and counted. They are kept until molting to also evaluate growth regulating activity of the test compound. Efficacy in killing (and growth regulating) is expressed as a tick number (and molted tick number) reduction in comparison with a placebo treated group, using the Abbott's formula:
n=number of live ticks. T=treated group. Co=control/placebo group.

[5] = tested on: Rhipicephalus sanguineus (Dog Tick); assay: Activity in vitro against Rhipicephalus sanguineus (dog tick), Assay A, contact test; conditions: Rhipicephalus sanguineus, 168 h, at 100 ppm, adult ticks, 28° C. and 80% relative humidity for 7 days, read-out: efficacy (EC80)
Method: Activity In Vitro Against Rhipicephalus sanguineus (Dog Tick)—Assay A
A contact test is performed by pre-coating microplate with serial dilution of compound allowing evaluating anti-parasitic activity by contact against ticks. A mixed adult tick population is then distributed to each well of the plate and incubated at 28° C. and 80% relative humidity for 7 days, during which the effect of the test compound is monitored. Acaricidal activity is confirmed if and when adult ticks are dead.

Lice (Polyplax serrata) = assay: Activity in vivo against lice (Polyplax serrata) in mice (topical); conditions: pour-on application, live lice on day +4 and +14, Henderson & Tilton formula, read-out: efficacy (EC90)
Method: Activity In Vivo Against Lice (Polyplax serrata) in Mice (Topical) Mice naturally infected with P. serrata are treated with the formulated test compound on day 0 by pour-on application. On day +4 and +14, efficacy is evaluated by counting the number of live lice under a binocular. Efficacy at the two time points is expressed as a comparison of lice numbers counted on the same mouse before treatment, using the Henderson & Tilton formula, taking also into account lice numbers found on mice treated with the empty formulation (placebo group): [formula] n=number of lice, T=treated group, Co=control/placebo group.

[6] = tested on: Ctenocephalides Felis (Cat Flea); assay: Activity in vitro against Ctenocephalides felis (cat flea), Assay B; conditions: Ctenocephalides felis; at 10 ppm in bovine blood; % mortality at 48 hours post infestation; read-out: efficacy (EC50)
Method: Activity In Vitro Against Ctenocephalides Felis (Cat Flea)—Assay B
Test compounds are added to organic bovine blood contained in an artificial feeding container. Compounds with known insecticidal activity are included to serve as positive controls. Newly emerged unfed adult fleas from a laboratory colony are aspirated into each vial. The test cages are maintained using the artificial feeding apparatus to allow ingestion of compound. Fleas are evaluated for % mortality at 48 hours post infestation. Fleas showing normal movement and/or jumping ability are considered viable and those showing no movement are scored as dead.

Compound: CCCN(C(=O)c1cc(Cl)cc(C(F)(F)F)c1)C(C)c1ncnn1-c1ccccn1 (stereo not shown) [Example 8, 3-Chloro-N-propyl-N-[1-[2-(2-pyridyl)-1,2,4-triazol-3-yl]ethyl]-5-(trifluoromethyl)benzamide]
- pest or weed control at 100 ppm [1]: > 80%
- pest or weed control at 32 ppm [2]: > 80%
- pest or weed control at 200 ppm [3]: > 80%
- inhibition in vivo at 32 mg/kg [4]: > 90%

Compound: CC(c1ncnn1-c1ccccn1)N(CC1CC1)C(=O)c1cncc(C(F)(F)F)c1 (stereo not shown) [Example 9, N-(Cyclopropylmethyl)-N-[1-[2-(2-pyridyl)-1,2,4-triazol-3-yl]ethyl]-5-(trifluoromethyl)pyridine-3-carboxamide]
- pest or weed control at 100 ppm [1]: > 80%
- pest or weed control at 32 ppm [2]: > 80%
- pest or weed control at 100 ppm [5]: > 80%
- pest or weed control at 200 ppm [3]: > 80%
- inhibition in vivo at 32 mg/kg [4]: > 90%

Compound: CC(c1ncnn1-c1ccccn1)N(CC#N)C(=O)c1cc(C(F)(F)F)cc(C(F)(F)F)c1 (stereo not shown) [Example 14, N-(Cyanomethyl)-N-[1-[2-(2-pyridyl)-1,2,4-triazol-3-yl]ethyl]-3,5-bis(trifluoromethyl)benzamide]
- pest or weed control at 100 ppm [1]: > 80%
- pest or weed control at 32 ppm [2]: > 80%
- pest or weed control at 100 ppm [5]: > 80%
- pest or weed control at 200 ppm [3]: > 80%
- inhibition in vivo at 32 mg/kg [4]: > 90%

Compound: CC(c1ncnn1-c1ccccn1)N(CC1CC1(F)F)C(=O)c1cc(C(F)(F)F)cc(C(F)(F)F)c1 (stereo not shown) [Example 16, N-[(2,2-Difluorocyclopropyl)methyl]-N-[1-[2-(2-pyridyl)-1,2,4-triazol-3-yl]ethyl]-3,5-bis(trifluoromethyl)benzamide]
- pest or weed control at 100 ppm [1]: > 80%
- pest or weed control at 32 ppm [2]: > 80%
- pest or weed control at 200 ppm [3]: > 80%
- inhibition in vivo at 32 mg/kg [4]: > 90%
- inhibition in vivo at 32 mg/kg (Lice (Polyplax serrata)): > 90%

Compound: C#CCN(C(=O)c1cc(Cl)cc(OC(F)(F)F)c1)C(C)c1ncnn1-c1ccccn1 (stereo not shown) [Example 18, 3-Chloro-N-prop-2-ynyl-N-[1-[2-(2-pyridyl)-1,2,4-triazol-3-yl]ethyl]-5-(trifluoromethoxy)benzamide]
- pest or weed control at 100 ppm [1]: > 80%
- EC80 [1]: 10 ppm
- pest or weed control at 32 ppm [2]: > 80%
- pest or weed control at 200 ppm [3]: > 80%
- inhibition in vivo at 32 mg/kg [4]: > 90%
- inhibition in vivo at 32 mg/kg (Lice (Polyplax serrata)): > 90%

Compound: CC(c1ncnn1-c1ncccn1)N(CCF)C(=O)c1cc(Cl)cc(C(F)(F)F)c1 (stereo not shown) [Example 23, 3-Chloro-N-(2-fluoroethyl)-N-[1-(2-pyrimidin-2-yl-1,2,4-triazol-3-yl)ethyl]-5-(trifluoromethyl)benzamide]
- pest or weed control at 32 ppm [2]: > 80%
- pest or weed control at 200 ppm [3]: > 80%
- inhibition in vivo at 32 mg/kg [4]: > 90%

Compound: CC(c1ncnn1-c1ncccn1)N(CCC(F)(F)F)C(=O)c1cc(Cl)cc(C(F)(F)F)c1 (stereo not shown) [Example 26, 3-Chloro-N-[1-(2-pyrimidin-2-yl-1,2,4-triazol-3-yl)ethyl]-5-(trifluoromethyl)-N-(3,3,3-trifluoropropyl)benzamide]
- pest or weed control at 100 ppm [1]: > 80%
- pest or weed control at 32 ppm [2]: > 80%
- pest or weed control at 100 ppm [5]: > 80%
- inhibition in vivo at 32 mg/kg [4]: > 90%

Compound: CC(c1ncnn1-c1ncccn1)N(CC1CC1)C(=O)c1cncc(C(F)(F)F)c1 (stereo not shown) [Example 28, N-(Cyclopropylmethyl)-N-[1-(2-pyrimidin-2-yl-1,2,4-triazol-3-yl)ethyl]-5-(trifluoromethyl)pyridine-3-carboxamide]
- pest or weed control at 100 ppm [1]: > 80%
- pest or weed control at 32 ppm [2]: > 80%
- pest or weed control at 100 ppm [5]: > 80%
- inhibition in vivo at 32 mg/kg [4]: > 90%
- inhibition in vivo at 32 mg/kg (Lice (Polyplax serrata)): > 90%

Compound: CC(c1ncnn1-c1ncccn1)N(CCC(F)(F)F)C(=O)c1cncc(C(F)(F)F)c1 (stereo not shown) [Example 29, N-[1-(2-Pyrimidin-2-yl-1,2,4-triazol-3-yl)ethyl]-5-(trifluoromethyl)-N-(3,3,3-trifluoropropyl)pyridine-3-carboxamide]
- pest or weed control at 100 ppm [1]: > 80%
- pest or weed control at 32 ppm [2]: > 80%
- pest or weed control at 100 ppm [5]: > 80%
- inhibition in vivo at 32 mg/kg [4]: > 90%

Compound: CC(c1ncnn1-c1ncccn1)N(CCCF)C(=O)c1cncc(C(F)(F)F)c1 (stereo not shown) [Example 31, N-(3-Fluoropropyl)-N-[1-(2-pyrimidin-2-yl-1,2,4-triazol-3-yl)ethyl]-5-(trifluoromethyl)pyridine-3-carboxamide]
- pest or weed control at 100 ppm [1]: > 80%
- pest or weed control at 32 ppm [2]: > 80%
- pest or weed control at 100 ppm [5]: > 80%
- inhibition in vivo at 32 mg/kg [4]: > 90%

Compound: C#CCN(C(=O)c1cc(Cl)cc(OC(F)(F)F)c1)C(C)c1ncnn1-c1ncccn1 (stereo not shown) [Example 36, 3-Chloro-N-prop-2-ynyl-N-[1-(2-pyrimidin-2-yl-1,2,4-triazol-3-yl)ethyl]-5-(trifluoromethoxy)-benzamide]
- pest or weed control at 100 ppm [1]: > 80%
- pest or weed control at 32 ppm [2]: > 80%
- pest or weed control at 100 ppm [5]: > 80%
- pest or weed control at 200 ppm [3]: > 80%
- inhibition in vivo at 32 mg/kg (Lice (Polyplax serrata)): > 90%

Compound: CC(c1ncnn1-c1ncccn1)N(CC1CC1)C(=O)c1cccc(C#N)c1 (stereo not shown) [Example 38, 3-Cyano-N-(cyclopropylmethyl)-N-[1-(2-pyrimidin-2-yl-1,2,4-triazol-3-yl)ethyl]benzamide]
- pest or weed control at 100 ppm [1]: > 80%
- pest or weed control at 32 ppm [2]: > 80%
- pest or weed control at 100 ppm [5]: > 80%
- pest or weed control at 200 ppm [3]: > 80%
- inhibition in vivo at 32 mg/kg (Lice (Polyplax serrata)): > 90%

Compound: C[C@@H](c1ncnn1-c1ccccn1)N(CC1CC1)C(=O)c1cc(C(F)(F)F)cc(C(F)(F)F)c1 [Example 44, N-(Cyclopropylmethyl)-N-[(1S)-1-[2-(2-pyridyl)-1,2,4-triazol-3-yl]ethyl]-3,5-bis(trifluoromethyl)benzamide]
- pest or weed control at 100 ppm [1]: > 80%
- pest or weed control at 32 ppm [2]: > 80%
- pest or weed control at 200 ppm [3]: > 80%
- inhibition in vivo at 32 mg/kg [4]: > 90%

Compound: C[C@@H](c1ncnn1-c1ncccn1)N(CC1CC1)C(=O)c1cncc(C(F)(F)F)c1 [Example 45, N-(Cyclopropylmethyl)-N-[(1S)-1-(2-pyrimidin-2-yl-1,2,4-triazol-3-yl)ethyl]-5-(trifluoromethyl)pyridine-3-carboxamide]
- pest or weed control at 100 ppm [1]: > 80%
- pest or weed control at 32 ppm [2]: > 80%
- pest or weed control at 200 ppm [3]: > 80%
- inhibition in vivo at 32 mg/kg [4]: > 90%

Compound: C[C@@H](c1ncnn1-c1ncccn1)N(CC1CC1)C(=O)c1cc(C(F)(F)F)cc(C(F)(F)F)c1 [Example 49, N-(Cyclopropylmethyl)-N-[(1S)-1-(2-pyrimidin-2-yl-1,2,4-triazol-3-yl)ethyl]-3,5-bis(trifluoromethyl)benzamide]
- pest or weed control at 100 ppm [1]: > 80%
- pest or weed control at 32 ppm [2]: > 80%
- pest or weed control at 100 ppm [5]: > 80%
- inhibition in vivo at 32 mg/kg [4]: > 90%
- inhibition in vivo at 32 mg/kg (Lice (Polyplax serrata)): > 90%

Compound: CC(NC(=O)c1cccc(C#N)c1)c1ncnn1-c1ncccn1 (stereo not shown) [Example 52, 3-Cyano-N-[1-(2-pyrimidin-2-yl-1,2,4-triazol-3-yl)ethyl]benzamide]
- pest or weed control at 10 ppm [6]: > 50%

Compound: CC(c1ncnn1-c1ncccn1)N(C)C(=O)c1cccc(C(N)=S)c1 (stereo not shown) [Example 71, 3-Carbamothioyl-N-methyl-N-[1-(2-pyrimidin-2-yl-1,2,4-triazol-3-yl)ethyl]benzamide]
- pest or weed control at 10 ppm [6]: > 50%
